# Laboratory results from patent publication US11780802B2, “Organic sulfonic acid salts of amino acid esters and process for their preparation” (priority 2017, dated 2023).
# Assay: Stability in alkaline solution (residual ester bonds by 1H-NMR after storage)
# Assay type: physicochemical
# Details: 7 d, 50 wt % in water
# Method: To determine the stability under alkaline conditions, 50 wt % of the organic sulfonic acid salt of an amino acid ester is dissolved in water, pH is adjusted with sodium hydroxide to pH 8.5. The aqueous solution or emulsion is stored for 7 days at room temperature and 40° C. Before storage the integral of CH2-O—CO— (^1H-NMR in MeOD, ˜4.2 ppm) is measured. The stability of organic sulfonic acid salt of an amino acid ester is indicated by measuring the integral of CH2-O—CO— (^1H-NMR in MeOD) after storage.
smiles,measurement,setting,value
"CCCCC(CC)COC(=O)CCCCCN.CCCCCCCCCCCCc1ccc(S(=O)(=O)O)cc1 [Example 11, 6-amino-hexane acid-2-ethylhexylester 4-dodecylbenzene sulfonic acid salt]","Residual amount of ester bonds after storage, calculated from 1H-NMR in MeOD","pH 8.5, 40° C.",100%
same,"Residual amount of ester bonds after storage, calculated from 1H-NMR in MeOD","pH 8.5, RT",100%
CCCCC(CC)COC(=O)CN.CS(=O)(=O)O (stereo not drawn) [compound 3],"Residual amount of ester bonds after storage, calculated from 1H-NMR in MeOD","pH 8.5, 40° C.",20%
same,"Residual amount of ester bonds after storage, calculated from 1H-NMR in MeOD","pH 8.5, RT",37%
CCCCC(CC)COC(=O)C(C)N.CS(=O)(=O)O (stereo not drawn) [compound 4],"Residual amount of ester bonds after storage, calculated from 1H-NMR in MeOD","pH 8.5, 40° C.",46%
same,"Residual amount of ester bonds after storage, calculated from 1H-NMR in MeOD","pH 8.5, RT",72%
